Each structure is given as a SMILES string.

The test deals with T1, chymotrypsin-like (CT-L) proteasome activity (Homo sapiens, UniProt P20618+P28074).
T1 sequence (P28074 60-263): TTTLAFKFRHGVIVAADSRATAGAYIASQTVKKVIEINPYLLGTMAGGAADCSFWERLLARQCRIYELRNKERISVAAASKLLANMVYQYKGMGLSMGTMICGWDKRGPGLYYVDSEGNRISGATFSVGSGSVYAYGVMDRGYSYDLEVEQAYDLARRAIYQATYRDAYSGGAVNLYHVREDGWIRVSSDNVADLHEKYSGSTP
T1 sequence (P20618 29-241): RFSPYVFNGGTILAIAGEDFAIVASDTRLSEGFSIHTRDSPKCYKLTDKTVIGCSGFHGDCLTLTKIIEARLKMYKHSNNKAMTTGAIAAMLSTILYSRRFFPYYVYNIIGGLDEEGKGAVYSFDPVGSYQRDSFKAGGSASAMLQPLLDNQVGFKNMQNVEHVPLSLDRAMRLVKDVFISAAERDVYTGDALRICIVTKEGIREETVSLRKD
As to the kind of experiment: Proteasome enzymatic activity (tumor cell lysates), CT-L, KMS-11. The class given is biochemical. The following applies: KMS-11, mean ± standard deviation. The procedure:
Human multiple myeloma cell lines 8226, H929, JJN3, KMH11, KMS11, KMS18, LP1, MM1S, OPM2 and U266 were grown in Iscove modified Dulbecco's medium (IMDM). Human leukemia cell lines K562, OCI-AML2 and U937 were cultured in RPMI-1640 medium. Primary peripheral blood mononuclear cells were isolated from multiple myeloma patients by Ficoll density gradient centrifugation and bone marrow aspirates were obtained from multiple myeloma patients at the Princess Margaret Cancer Centre of the University Health Network (UHN; Toronto, ON, Canada). Primary cells were cultured in IMDM. The collection and use of human tissue for this study was approved by the UHN institutional ethics review board. All cell culture media were obtained from the Ontario Cancer Institute Tissue Culture Media Facility (Toronto, ON, Canada) and were supplemented with 10% fetal calf serum, […] (Hyclone, Logan, Utah). All cells were grown in a humidified incubator at 37° C. with 5% CO2.
Cells were harvested by centrifugation at 1,200 rpm at room temperature. Cell pellets were washed with PBS (phosphate buffered saline) and lysed with assay lysis buffer (50 mM HEPES (N-2-hydroxyethylpiperazine-N′-2-ethanesulfonic acid), pH 7.5; 150 mM NaCl; 1% Triton X-100; 2 mM ATP). Cell lysates were incubated on ice for 30 minutes, mixed by vortex every 5 minutes, and then centrifuged at 12,000 g for 10 minutes. The supernatant was transferred to a 96-well plate. For each assay, 10 μg of total protein were incubated for 1 hour at 37° C. with increasing concentrations (1 nM to 10 μM) of test compound diluted in assay buffer (50 mM tris-HCl (tris(hydroxymethyl)aminomethane-HCl), pH 7.5; 150 mM NaCl). DMSO alone was used as a control in every assay plate. After incubation, a specific fluorogenic proteasome substrate was added to each assay reaction at a final concentration of 40 μM in a total volume of 100 μL. N-Succinyl-Leu-Leu-Val-Tyr-7-amino-4-methylcoumarin (Suc-Leu-Leu-Val-Tyr-AMC) was used for measuring chymotrypsin-like (CT-L) activity, t-butoxycarbonyl-Leu-Arg-Arg-7-amino-4-methylcoumarin (Boc-Leu-Arg-Arg-AMC) for trypsin-like (T-L) activity, and benzyloxycarbonyl-L-leucyl-L-leucyl-L-glutamyl-7-amino-4-methylcoumarin (Z-Leu-Leu-Glu-AMC) for caspase-like (C-L) activity. The excitation wavelength was set at 360 nm and the fluorescence emission wavelength of AMC was detected at 460 nm. The fluorescence of free AMC released during the enzymatic reaction was measured with a SpectraMax M5 fluorescent spectrophotometric plate reader (Molecular Devices, Sunnyvale, Calif.). AMC release rate was measured at 37° C. in a kinetic mode, recording every 5 minutes for 30 minutes. Experiments were performed in triplicate and repeated at least twice.
Table 8 summarizes the data of representative compounds of Formula I for cell viability and CT-L proteasome activity with OCI-AML-2 and KMS-11 cell lines.
In general, IC50 refers to the midpoint of a concentration-inhibition curve. Read a low IC50 as higher potency. In the case of `CC(C)C[C@H](NC(=O)[C@H](COC(F)F)NC(=O)CN1CCOCC1)C(=O)N[C@@H](COC(F)F)C(=O)N[C@@H](CC(C)C)C(=O)[C@@]1(C)CO1` [Example 1, (2S)—N-[(1S)-1-(difluoromethoxymethyl)-2-[[(1S)-3-methyl-1-[(2R)-2-methyloxirane-2-carbonyl]butyl]amino]-2-oxo-ethyl]-2-[[(2S)-3-(difluoromethoxy)-2-[(2-morpholinoacetyl)amino]propanoyl]amino]-4-methyl-pentanamide], 40.4 ± 6.97 nM corresponded to half-maximal inhibition (IC50).

As for `CC(C)C[C@H](NC(=O)[C@H](COC(F)F)NC(=O)[C@H](COC(F)F)NC(=O)[C@H](CCc1ccccc1)NC(=O)CN1CCOCC1)C(=O)[C@@]1(C)CO1` [Example 7, (2S)-N-[(1S)-1-(difluoromethoxymethyl)-2-[[(1S)-1-(difluoromethoxymethyl)-2-[[(1S)-3-methyl-1-[(2R)-2-methyloxirane-2-carbo-nyl]butyl]amino]-2-oxo-ethyl]amino]-2-oxo-ethyl]-2-[(2-morpholinoacetyl)amino]-4-phenyl-butanamide], half-maximal inhibition (IC50) was put at 33.7 ± 5.6 nM. The figure for `CC(C)C[C@H](NC(=O)[C@H](COC(F)F)NC(=O)CN1CCOCC1)C(=O)N[C@@H](Cc1ccccc1)C(=O)N[C@@H](CC(C)C)C(=O)[C@@]1(C)CO1` [Example 2, (2S)-N-[(1S)-1-benzyl-2-[[(1S)-3-methyl-1-[(2R)-2-methyloxirane-2-carbonyl]butyl]-amino]-2-oxo-ethyl]-2-[[(2S)-3-(difluoromethoxy)-2-[(2-morpholinoacetyl)amino]propanoyl]amino]-4-methyl-pentanamide] is 46.8 ± 1.58 nM.

`CC(C)C[C@H](NC(=O)[C@H](COC(F)F)NC(=O)[C@H](COC(F)F)NC(=O)[C@H](COC(F)F)NC(=O)CN1CCOCC1)C(=O)[C@@]1(C)CO1` [Example 17, (2S)-3-(difluoromethoxy)-N-[(1S)-1-(difluoromethoxymethyl)-2-[[(1S)-1-(difluoro-methoxymethyl)-2-[[(1S)-3-methyl-1-[(2R)-2-methyloxirane-2-carbonyl]butyl]amino]-2-oxo-ethyl]amino]-2-oxo-ethyl]-2-[(2-mor-pholinoacetyl)amino]-propanamide] displayed an IC50 of 77.8 ± 6.77 nM. To `CC(C)C[C@H](NC(=O)[C@H](COC(F)F)NC(=O)CN1CCOCC1)C(=O)N[C@@H](COC(F)F)C(=O)N[C@@H](Cc1ccccc1)C(=O)[C@@]1(C)CO1` [Example 4, (2S)-N-[(1S)-2-[[(1S)-1-benzyl-2-[(2R)-2-methyloxiran-2-yl]-2-oxo-ethyl]amino]-1-(difluoromethoxymethyl)-2-oxo-ethyl]-2-[[(2S)-3-(difluoromethoxy)-2-[(2-mor-pholinoacetyl)amino]propanoyl]amino]-4 methyl-pentanamide] belongs 45.7 ± 8.26 nM; to `CC(C)C[C@H](NC(=O)[C@H](Cc1ccccc1)NC(=O)[C@H](COC(F)F)NC(=O)[C@H](COC(F)F)NC(=O)CN1CCOCC1)C(=O)[C@@]1(C)CO1` [Example 11, (2S)-2-[[(2S)-3-(difluoromethoxy)-2-[[(2S)-3-(difluoromethoxy)-2-[(2-morpholinoacetyl)-amino]propanoyl]amino]propanoyl]amino]-N-[(1S)-3-methyl-1-[(2R)-2-methyloxirane-2-carbonyl]butyl]-3-phenyl-propanamide], 50.7 ± 7.72 nM. The figure for `CC(C)C[C@H](NC(=O)[C@H](COC(F)F)NC(=O)CN1CCOCC1)C(=O)N[C@@H](Cc1ccccc1)C(=O)N[C@@H](Cc1ccccc1)C(=O)[C@@]1(C)CO1` [Example 3, (2S)-N-[(1S)-1-benzyl-2-[[(1S)-1-benzyl-2-[(2R)-2-methyloxiran-2-yl]-2-oxo-ethyl]amino]-2-oxo-ethyl]-2-[[(2S)-3-(difluoromethoxy)-2-[(2-morpholinoacetyl)-amino]propanoyl]amino]-4-methyl-pentan-amide] is 38.2 ± 2.81 nM.

(Values after patent US20150218212A1, “FLUORINATED EPOXYKETONE-BASED TETRAPEPTIDE COMPOUNDS AND USES THEREOF AS PROTEASOME INHIBITORS” (FLUORINOV PHARMA INC., priority 2012, published 2015).)
